Assays:
Type in all cases: in vivo
[1] = test system: Digitaria ciliaris; experiment: Weed foliar treatment test (Test 4, 4.0 to 5.0 leaf stage); settings: 10 g a.i./10a; foliar spray at 4.0 to 5.0 leaf stage of Digitaria ciliaris (plant height 10 cm to 15 cm); 20 days
Procedure: (§1) Field soil was filled into a 1/4500 are pot followed by seeding with Digitaria ciliaris and Galinsoga parviflora, covering with soil and cultivating in a glass greenhouse at an average atmospheric temperature of 25° C.
(§2) Wettable powders of Target Compound (I) shown in Table 1 prepared in compliance with the preparation examples were diluted with water to the prescribed amount of chemical and uniformly sprayed onto the weeds using 100 liters of sprayed water per 10 are when Digitaria ciliaris had grown to the 4.0 to 5.0 leaf stage (plant height: 10 cm to 15 cm).
(§3) After treating for 20 days in a glass greenhouse at an average atmospheric temperature of 25° C., the herbicidal efficacy thereof was investigated.
(§4) Evaluation of herbicidal efficacy was carried out in the same manner as the above-mentioned Test Example 1.

[2] = test system: Galinsoga parviflora; experiment: as above; settings: 10 g a.i./10a; foliar spray at 4.0 to 5.0 leaf stage of Digitaria ciliaris; 20 days
Procedure: as §1, §2, §3, §4

[3] = test system: Echinochloa crus-galli; experiment: Paddy herbicidal activity test; settings: irrigated paddy pot, treated at 3.5 leaf stage of Echinochloa crus-galli, 30 days
Procedure: (§5) After treating for 30 days in a glass greenhouse at an average atmospheric temperature of 30° C., the herbicidal efficacy thereof was investigated. Evaluation of herbicidal efficacy was carried out by comparing growth inhibition rate (%) with an untreated group, while evaluation of phytotoxicity was carried out by comparing growth inhibition rate (%) with the state of a complete eradication group, and were evaluated at 11 levels indicated below. […] 2: 20% to less than 30% 3: 30% to less than 40% 4: 40% to less than 50% 5: 50% to less than 60% 6: 60% to less than 70% 7: 70% to less than 80% […]

[4] = test system: Monochoria vaginalis; experiment: Paddy herbicidal activity test; settings: irrigated paddy pot, 30 days
Procedure: as §5

[5] = test system: Scirpus juncoides; experiment: Paddy herbicidal activity test; settings: irrigated paddy pot, 30 days
Procedure: as §5

[6] = test system: Amaranthus retroflexus; experiment: Farming soil treatment test; settings: soil surface spray prior to weed growth, 30 days
Procedure: (§6) Field soil was filled into a 1/6000 are pot followed by seeding with Digitaria cilaris, Chenopodium album and Amaranthus retroflexus and covering with soil.
(§7) Wettable powders of compounds of formula (I) shown in Table 1 prepared in compliance with the preparation examples were diluted. with water to the prescribed amount of chemical and uniformly sprayed onto each soil surface layer using 100 liters of sprayed water per 10 are prior to weed growth following seeding.
(§8) After treating for 30 days in a glass greenhouse at an average atmospheric temperature of 30° C., the herbicidal efficacy thereof was investigated.
as §4

[7] = test system: Chenopodium album; experiment: Farming soil treatment test; settings: soil surface spray prior to weed growth, 30 days
Procedure: as §6, §7, §8, §4

[8] = test system: Digitaria ciliaris; experiment: Farming soil treatment test; settings: soil surface spray prior to weed growth, 30 days
Procedure: as §6, §7, §8, §4

[9] = test system: Amaranthus retroflexus; experiment: Weed foliar treatment test (Test 3, 1.0 to 2.0 leaf stage); settings: foliar spray at 1.0 to 2.0 leaf stage of Digitaria ciliaris, 3 weeks
Procedure: (§9) Soil was filled into a 1/6000 are pot followed by seeding with Digitaria ciliaris, Chenopodium album and Amaranthus retroflexus, covering with soil, and cultivating in a glass greenhouse at an average atmospheric temperature of 25° C.
as §2, with “150” for “100”, “1.0” for “4.0”, “2.0” for “5.0”, “stage.” for “stage (plant height: 10 cm to 15 cm).”
(§10) After treating for 3 weeks in a glass greenhouse at an average atmospheric temperature of 25° C., the herbicidal efficacy thereof was investigated.
as §4

[10] = test system: Chenopodium album; experiment: as above; settings: foliar spray at 1.0 to 2.0 leaf stage of Digitaria ciliaris, 3 weeks
Procedure: as §9
as §2, with “150” for “100”, “1.0” for “4.0”, “2.0” for “5.0”, “stage.” for “stage (plant height: 10 cm to 15 cm).”
as §10, §4

[11] = test system: Digitaria ciliaris; experiment: as above; settings: foliar spray at 1.0 to 2.0 leaf stage of Digitaria ciliaris, 3 weeks
Procedure: as §9
as §2, with “150” for “100”, “1.0” for “4.0”, “2.0” for “5.0”, “stage.” for “stage (plant height: 10 cm to 15 cm).”
as §10, §4

[12] = test system: Oryza sativa; experiment: Paddy herbicidal activity test, phytotoxicity to transplanted rice; settings: rice transplanted at 2.0 leaf stage, 30 days
Procedure: as §5

| Structure (SMILES) | herbicidal efficacy Digitaria ciliaris [1] | herbicidal efficacy Galinsoga parviflora [2] | herbicidal efficacy Echinochloa crus-galli ([3]; 1g a.i./10a) | herbicidal efficacy Echinochloa crus-galli ([3]; 5g a.i./10a) | herbicidal efficacy Monochoria vaginalis ([4]; 1g a.i./10a) | herbicidal efficacy Monochoria vaginalis ([4]; 5g a.i./10a) | herbicidal efficacy Scirpus juncoides ([5]; 1g a.i./10a) | herbicidal efficacy Scirpus juncoides ([5]; 5g a.i./10a) | herbicidal efficacy Amaranthus retroflexus ([6]; 5g a.i./10a) | herbicidal efficacy Amaranthus retroflexus ([6]; 10g a.i./10a) | herbicidal efficacy Chenopodium album ([7]; 5g a.i./10a) | herbicidal efficacy Chenopodium album ([7]; 10g a.i./10a) | herbicidal efficacy Digitaria ciliaris ([8]; 5g a.i./10a) | herbicidal efficacy Digitaria ciliaris ([8]; 10g a.i./10a) | herbicidal efficacy Amaranthus retroflexus ([9]; 5g a.i./10a) | herbicidal efficacy Amaranthus retroflexus ([9]; 10g a.i./10a) | herbicidal efficacy Chenopodium album ([10]; 5g a.i./10a) | herbicidal efficacy Chenopodium album ([10]; 10g a.i./10a) | herbicidal efficacy Digitaria ciliaris ([11]; 5g a.i./10a) | herbicidal efficacy Digitaria ciliaris ([11]; 10g a.i./10a) | other results |
| --- | --- | --- | --- | --- | --- | --- | --- | --- | --- | --- | --- | --- | --- | --- | --- | --- | --- | --- | --- | --- | --- |
| CC(C)OC(=O)N(C(=O)OC(C)C)c1c(C#N)cnn1-c1nn2c(c1Cl)CCCC2 [Compound 12] | 10 (10: 100%) | 10 (10: 100%) |  |  |  |  |  |  |  |  |  |  |  |  |  |  |  |  |  |  |  |
| COC(=O)N(C(=O)OC)c1c([N+](=O)[O-])cnn1-c1nn2c(c1Cl)CCCC2 [Compound 3] | 10 (10: 100%) | 10 (10: 100%) |  |  |  |  |  |  |  |  |  |  |  |  |  |  |  |  |  |  |  |
| CCOC(=O)N(C(=O)OC)c1c(C#N)cnn1-c1nn2c(c1Cl)CCCC2 [Compound 1, Methyl N-(3-chloro-4,5,6,7-tetrahydropyrazolo[1,5-a]pyridine-2-yl)-4-cyanopyr azol-5-yl)-N-ethoxycarbonyl Carbamate] | 9 (9: 90% to less than 100%) | 10 (10: 100%) | 9 (9: 90% to less than 100%) | 10 (10: 100%) | 10 (10: 100%) | 10 (10: 100%) | 9 (9: 90% to less than 100%) | 9 (9: 90% to less than 100%) | 9 (9: 90% to less than 100%) | 9 (9: 90% to less than 100%) | 9 (9: 90% to less than 100%) | 10 (10: 100%) | 9 (9: 90% to less than 100%) | 9 (9: 90% to less than 100%) | 10 (10: 100%) | 10 (10: 100%) | 10 (10: 100%) | 10 (10: 100%) | 9 (9: 90% to less than 100%) | 10 (10: 100%) |  |
| COC(=O)N(C(=O)OC)c1c([N+](=O)[O-])cnn1-c1nn2c(c1Br)CCCC2 [Compound 5] | 9 (9: 90% to less than 100%) | 10 (10: 100%) | 9 (9: 90% to less than 100%) | 9 (9: 90% to less than 100%) | 10 (10: 100%) | 10 (10: 100%) | 10 (10: 100%) | 10 (10: 100%) | 10 (10: 100%) | 10 (10: 100%) | 10 (10: 100%) | 10 (10: 100%) | 9 (9: 90% to less than 100%) | 9 (9: 90% to less than 100%) | 10 (10: 100%) | 10 (10: 100%) | 10 (10: 100%) | 10 (10: 100%) | 9 (9: 90% to less than 100%) | 10 (10: 100%) | phytotoxicity Oryza sativa ([12]; 1g a.i./10a): 1 (1: 10% to less than 20%); phytotoxicity Oryza sativa ([12]; 5g a.i./10a): 1 (1: 10% to less than 20%) |
| CCOC(=O)Nc1c([N+](=O)[O-])cnn1-c1nn2c(c1Cl)CCCC2 [Control agent 2.28, reference compound] |  |  |  |  |  |  |  |  |  |  |  |  |  |  |  |  |  |  |  |  | phytotoxicity Oryza sativa ([12]; 1g a.i./10a): 0 (0 (exponent): 0% to less than 10% (growth inhibition rate)); phytotoxicity Oryza sativa ([12]; 5g a.i./10a): 1 (1: 10% to less than 20%) |
| CCOC(=O)N(C(=O)OCC)c1c(C#N)cnn1-c1nn2c(c1Cl)CCCC2 [Compound 6] | 10 (10: 100%) | 10 (10: 100%) | 10 (10: 100%) | 10 (10: 100%) | 10 (10: 100%) | 10 (10: 100%) | 9 (9: 90% to less than 100%) | 10 (10: 100%) | 10 (10: 100%) | 10 (10: 100%) | 9 (9: 90% to less than 100%) | 10 (10: 100%) | 10 (10: 100%) | 10 (10: 100%) | 10 (10: 100%) | 10 (10: 100%) | 10 (10: 100%) | 10 (10: 100%) | 10 (10: 100%) | 10 (10: 100%) | phytotoxicity Oryza sativa ([12]; 1g a.i./10a): 0 (0 (exponent): 0% to less than 10% (growth inhibition rate)); phytotoxicity Oryza sativa ([12]; 5g a.i./10a): 1 (1: 10% to less than 20%) |
| C=CCOC(=O)N(C(=O)OCC=C)c1c([N+](=O)[O-])cnn1-c1nn2c(c1Cl)CCCC2 [Compound 15] | 10 (10: 100%) | 10 (10: 100%) |  |  |  |  |  |  |  |  |  |  |  |  |  |  |  |  |  |  |  |
| COC(=O)N(C(=O)OC)c1c(C#N)cnn1-c1nn2c(c1Br)CCCC2 [Compound 4] | 10 (10: 100%) | 10 (10: 100%) | 10 (10: 100%) | 10 (10: 100%) | 10 (10: 100%) | 10 (10: 100%) | 9 (9: 90% to less than 100%) | 10 (10: 100%) | 10 (10: 100%) | 10 (10: 100%) | 9 (9: 90% to less than 100%) | 10 (10: 100%) | 10 (10: 100%) | 10 (10: 100%) | 10 (10: 100%) | 10 (10: 100%) | 10 (10: 100%) | 10 (10: 100%) | 10 (10: 100%) | 10 (10: 100%) | phytotoxicity Oryza sativa ([12]; 1g a.i./10a): 0 (0 (exponent): 0% to less than 10% (growth inhibition rate)); phytotoxicity Oryza sativa ([12]; 5g a.i./10a): 1 (1: 10% to less than 20%) |
| CC(C)COC(=O)N(C(=O)OCC(C)C)c1c(C#N)cnn1-c1nn2c(c1Cl)CCCC2 [Compound 13] | 10 (10: 100%) | 10 (10: 100%) |  |  |  |  |  |  |  |  |  |  |  |  |  |  |  |  |  |  |  |

— patent US10165779B2, “Substituted pyrazolylpyrazole derivative and use of same as herbicide” (KYOYU AGRI CO., LTD., priority 2015, dated 2019)
